Results published in patent US20080004290A1, “Anti-Cancer Agents” (THE UNIVERSITY OF QUEENSLAND, priority 2003, published 2008).
Read-outs that look alike come from different tables or passages of the source.

Experiments:
[1] = test system: MM96L melanoma cells; assay: Cell survival assay (clonogenic survival, SRB); assay type: cell-based, human; conditions: for Selectivity: IC50 (NFF)/IC50 (MM96L)
Protocol: (§1) The cytotoxicities of the compounds of the invention were determined by clonogenic survival of human cancer cells (MM96L, melanoma) and human normal cells (NFF, neonatal foreskin fibroblasts). Cells were incubated with the compounds at various concentrations of compound (0.01-10 μg/mL) for 24 hours, washed, and then grown for a further four days in the absence of hydroxamic acid before determining cell survival by cell count. The final readout involved staining with sulforhodamine B (SRB), a cost-effective method amenable to automation and high throughput analysis. At the technical level, “cell sensitivity” is often inferred from short term (1-2 day) observations such as apoptosis, which may not be a satisfactory model of clonogenic survival.
(§2) Cell Lines and Culture Medium. All cell lines used in this study have been described previously (Parsons et al., 1986; Todaro et al., 1980; Glenn et al., 2004). All cell lines were cultured in 10% heat-inactivated foetal calf serum (CSL, Australia) in RPMI 1640 medium supplemented with 100 U/mL penicillin, 100 μg/mL streptomycin, and 3 mM HEPES at 5% CO2, 99% humidity at 37° C. Primary human fibroblasts were obtained from neonatal foreskins and cultured in the above medium. Routine mycoplasma tests were performed using Hoechst stain^i and were always negative.
(§3) Cell Survival Assay. Cells were plated into 96-well microtitre plates at 5×10^3 cells/well, and allowed to adhere overnight. Test compounds were added to culture medium at the indicated concentrations, and plates incubated in the above conditions for 24 hours. Following this incubation period, compounds and media were removed, and replaced with fresh culture medium. Cells were then grown for a further 72 hours before assay using sulforhodamine B (SRB; Sigma, St. Louis, Mo.) as previously described. Briefly, the culture medium was removed from the 96-well microtitre plates and the plates washed twice with phosphate buffered saline (PBS), before the cells were fixed with methylated spirits for 15 minutes. The plates were then rinsed with tap water and the fixed cells stained with 50 μL/well of SRB solution (0.4% sulforhodamine B (w/v) in 1% (v/v) acetic acid) over a period of 1 hour. The SRB solution was then removed from the wells and the plates rapidly washed two times with 1% (v/v) acetic acid. Protein bound dye was then solubilised with the addition of 100 μL of 10 mM unbuffered Tris, and incubated for 15 min at 25° C. Plates were then read at 564 nm on a VERSA max tunable microplate reader (Molecular Devices, Sunnyvale, Calif.).

[2] = test system: NFF, neonatal foreskin fibroblasts; assay: Cell survival assay (clonogenic survival, SRB), normal cells; assay type: cell-based, human; conditions: Table 6, 24 hours with compound, further growth, SRB, read-out: IC50 (μM) NFF
Protocol: as §1, §2, §3

[3] = Homo sapiens, MM96L, 24 h, Table 6, 24 hours with compound, further growth, SRB, read-out: IC50 (μM) MM96L
[4] = Table 6, 24 hours with compound, further growth, SRB, read-out: IC50 (μM) MM96L

| SMILES | IC50 [1, 3] | Selectivity ([1]; Table 6) | IC50 ([2]; Homo sapiens, Fibroblast, 24 h) | IC50 ([1]; Homo sapiens, MM96L, most preferred compounds, exemplary examples, read-out: potency of IC50 against the MM96 melanoma cells) | IC50 [1, 4] | IC50 [2] |
| --- | --- | --- | --- | --- | --- | --- |
| CN(C)c1ccc(C(=O)N[C@@H](CSCCCC(=O)NO)C(=O)Nc2cccc3ccccc23)cc1 [Example 65] | 1.3 ± 0.1 µM | 4.5 | 5.9 ± 0.7 µM |  |  |  |
| CN(C)c1ccc(C(=O)N[C@@H](CSCCCC(=O)NO)C(=O)Nc2cccc3c2CCCC3)cc1 [Example 66] | 0.5 ± 0.1 µM | 4.4 | 2.2 ± 0.3 µM | ≤ 0.5 µM |  |  |
| CN(C)c1ccc(C(=O)N[C@@H](CSCCCC(=O)NO)C(=O)Nc2cccc3cccnc23)cc1 [Example 68] | 0.61 ± 0.08 µM | 5.0 | 3 ± 0.3 µM |  |  |  |
| CN(C)c1ccc(C(=O)N[C@@H](CSCCCC(=O)NO)C(=O)Nc2cccc3scnc23)cc1 [Example 69] | 1.3 ± 0.1 µM | 2.5 | 3.3 ± 0.3 µM |  |  |  |
| CN(C)c1ccc(C(=O)N[C@@H](CSCCCC(=O)NO)C(=O)Nc2cccc3cc4ccccc4cc23)cc1 [Example 71] | 1.7 ± 0.3 µM | 1.3 | 2.2 ± 0.3 µM |  |  |  |
| CN(C)c1ccc(C(=O)N[C@@H](CSCCCC(=O)NO)C(=O)Nc2ccc3cc4ccccc4cc3c2)cc1 [Example 72] | 0.55 ± 0.07 µM | 2.1 | 1.14 ± 0.06 µM |  |  |  |
| CN(C)c1ccc(C(=O)N[C@@H](CSCCCC(=O)NO)C(=O)NCc2ccccc2)cc1 [Example 73] | 0.14 ± 0.09 µM | 2.5 | 0.35 ± 0.07 µM |  |  |  |
| CN(C)c1ccc(C(=O)N[C@@H](CSCCCC(=O)NO)C(=O)N(Cc2ccccc2)Cc2ccccc2)cc1 [Example 74] | 2.3 ± 0.2 µM | 6.5 | 15.3 ± 0.6 µM |  |  |  |
| CN(C)c1ccc(C(=O)N[C@@H](CSCCCC(=O)NO)C(=O)NCc2cccc3ccccc23)cc1 [Example 75] | 0.2 ± 0.02 µM | 2.1 | 0.42 ± 0.05 µM |  |  |  |
| CN(C)c1ccc(C(=O)N[C@@H](CSCCCC(=O)NO)C(=O)N[C@H](c2ccccc2)[C@@H](O)c2ccccc2)cc1 [Example 76] |  | 4.3 |  |  | 2.1 ± 0.2 µM | 9 ± 3 µM |
| CN(C)c1ccc(C(=O)N[C@@H](CSCCCC(=O)NO)C(=O)Nc2ccncc2)cc1 [Example 77] | 1.8 ± 0.2 µM | 4.1 | 7.2 ± 0.8 µM |  |  |  |
| Cc1ccnc(NC(=O)[C@H](CSCCCC(=O)NO)NC(=O)c2ccc(N(C)C)cc2)c1 [Example 79] | 1.12 ± 0.06 µM | 10.0 | 11.2 ± 0.7 µM |  |  |  |
| CN(C)c1ccc(C(=O)N[C@@H](CSCCCC(=O)NO)C(=O)NCc2ccncc2)cc1 [Example 80] | 2.2 ± 0.3 µM | 6.2 | 14 ± 1 µM |  |  |  |
| CN(C)c1ccc(C(=O)N[C@@H](CSCCCC(=O)NO)C(=O)NCc2cccnc2)cc1 [Example 81] | 1.49 ± 0.09 µM | 5.9 | 8.8 ± 0.5 µM |  |  |  |
| CN(C)c1ccc(C(=O)N[C@@H](CSCCCC(=O)NO)C(=O)NCc2ccccn2)cc1 [Example 82] | 1.2 ± 0.1 µM | 5.5 | 6.5 ± 0.3 µM |  |  |  |
| CN(C)c1ccc(C(=O)N[C@@H](CSCCCC(=O)NO)C(=O)NCCc2ccccc2)cc1 [Example 83] |  | 1.9 |  |  | 1.4 ± 0.1 µM | 2.7 ± 0.3 µM |
| CN(C)c1ccc(C(=O)N[C@@H](CSCCCC(=O)NO)C(=O)NCCc2ccccc2Br)cc1 [Example 84] |  | 4.7 |  |  | 0.7 ± 0.2 µM | 3.3 ± 0.3 µM |
| CN(C)c1ccc(C(=O)N[C@@H](CSCCCC(=O)NO)C(=O)NCCc2cccc(Br)c2)cc1 [Example 85] |  | 3.4 |  |  | 0.9 ± 0.1 µM | 3.1 ± 0.1 µM |
| CN(C)c1ccc(C(=O)N[C@@H](CSCCCC(=O)NO)C(=O)NCCc2ccc(Br)cc2)cc1 [Example 86] |  | 2.6 |  |  | 1 ± 0.1 µM | 2.6 ± 0.3 µM |
| CN(C)c1ccc(C(=O)N[C@@H](CSCCCC(=O)NO)C(=O)NC2(Cc3ccccc3)CCCC2)cc1 [Example 87] |  | 7.0 |  |  | 0.6 ± 0.1 µM | 4.2 ± 0.5 µM |
